Experimental data: US12643906B2, “Fused aza-heterocyclic amide compound and use thereof” (CSPC ZHONGQI PHARMACEUTICAL TECHNOLOGY (SHIJIAZHUANG) CO., …, priority 2020, dated 2026)

Tests used:
ROS1 = biological target: T1, ROS1 (Homo sapiens, UniProt P08922); assay: Kinase inhibition assay with fluorescein labeled peptide, ROS1; assay type: biochemical
T1 construct: purchased Carna 08-163
Procedure: (§1) Compounds were diluted to a certain concentration in DMSO with 4-fold gradients. The compound with a certain concentration, an enzyme solution and DMSO were added into a 384-well plate, and the plate was incubated at room temperature for 10 min. […] The plate was subjected to reading.

TRKA(G667C) = biological target: T2, TRKA(G667C) (Homo sapiens, UniProt P04629, G667C); assay: HTRF kinase inhibition assay, TRKA(G667C); assay type: biochemical
T2 construct: purchased signalchem
Procedure: (§2) The compound to be tested with a certain concentration gradient and an enzyme solution were successively added into a plate (kinase buffer (1× kinase buffer (Cisbio, Cat #62EZBFDD), pH 7.5; 5 mM MgCl2, 1 mM DTT) was added into negative control wells), and the compound plate was centrifuged at 1000 rpm for 30 seconds. The plate was sealed and incubated in a Constant Temperature Incubator at 25° C. for 30 min. A substrate solution containing TK-Sub-biotin (Cisbio, Cat #61TKOBL) and ATP (Sigma, Cat #R0441) was prepared, the substrate solution was added into a 384-well plate, and the plate was centrifuged at 1000 rpm for 30 seconds. The plate was sealed and incubated in a Constant Temperature Incubator at 25° C. for 60 min.
(§3) TK antibody and XL665 were diluted, mixed and added into the assay plate, and the plate was centrifuged at 1000 rpm for 30 seconds. The plate was sealed and incubated in a Constant Temperature incubator Incubator at 25° C. for 60 min. The assay plate was placed on an Envision reader for reading. (HTRF 665/615 ratio: signal value at 665 nm/signal value at 615 nm) Inhibition=(rationegative control well−ratiocompound well)/(rationegative control well−ratioenzyme-free control well)×100% 1.3 Data Analysis and Curve Fitting
(§4) Data were fitted in XLFit excel add-in version 5.4.0.8 to obtain IC50 values.

TRKA(G595R) = biological target: T3, TRKA(G595R) (Homo sapiens, UniProt P04629, G595R); assay: HTRF kinase inhibition assay, TRKA(G595R); assay type: biochemical
T3 construct: purchased signalchem
Procedure: as §2, §3, §4

TRKC(G696A) = biological target: T4, TRKC(G696A) (Homo sapiens, UniProt Q16288, G696A); assay: HTRF kinase inhibition assay, TRKC(G696A); assay type: biochemical
T4 construct: purchased Bioduro
Procedure: as §2
(§5) TK antibody and XL665 were diluted, mixed and added into the assay plate, and the plate was centrifuged at 1000 rpm for 30 seconds. The plate was sealed and incubated in a Constant Temperature incubator Incubator at 25° C. for 60 min. The assay plate was placed on an Envision reader for reading.
as §4

ALK = biological target: T5, ALK (Homo sapiens, UniProt Q9UM73); assay: Kinase inhibition assay with fluorescein labeled peptide, ALK; assay type: biochemical
T5 construct: purchased Carna 08-105
Procedure: as §1

TRKC = biological target: T6, TRKC (Homo sapiens, UniProt Q16288); assay: HTRF kinase inhibition assay, TRKC; assay type: biochemical
T6 construct: purchased Bioduro
Procedure: as §2, §3, §4

TRKA = biological target: T7, TRKA (Homo sapiens, UniProt P04629); assay: HTRF kinase inhibition assay, TRKA; assay type: biochemical
T7 construct: purchased Bioduro
Procedure: as §2, §3, §4

TRKC(G623R) = biological target: T8, TRKC(G623R) (Homo sapiens, UniProt Q16288, G623R); assay: HTRF kinase inhibition assay, TRKC(G623R); assay type: biochemical
T8 construct: purchased Bioduro
Procedure: as §2, §3, §4

TRKB = biological target: T9, TRKB (Homo sapiens, UniProt Q16620); assay: HTRF kinase inhibition assay, TRKB; assay type: biochemical
T9 construct: purchased Bioduro
Procedure: as §2, §5, §4

Ba/F3 LMNA-NTRK1-G595R = biological target: T10, Ba/F3 LMNA-NTRK1-G595R (Homo sapiens, UniProt P04629, G595R, cells depend on it); assay: In vitro cell proliferation inhibition (MTT); assay type: cell-based, murine; conditions: 72 h, read-out: IC50 Ba/F3 LMNA-NTRK1-G595R
T10 construct: fused on or other part: P02545 (Prelamin-A/C)
Procedure: (§6) Cells in the logarithmic growth phase were harvested and counted using a […]. The cell suspension with a certain density was pipetted uniformly and seeded into a 96-well plate with each well of 100 μL, and shaken to make the cells uniformly disperse into the wells. 100 μL of compound solution with certain concentration gradient was added into each well, and 3 duplicate wells were set for each concentration. The plate was cultured in a CO2 incubator at 37° C. for 72 h. 20 μL of MTT working solution (5 mg/mL) was added into each well, and the plate was placed at 37° C. for 4 h, and centrifuged at 1000 rpm for 5 min by a plate centrifuge. After 180 μL of culture medium was discarded, the plate was added with 150 μL of DMSO, and mixed well with a microplate shaker, the plate bottom was wiped, and optical density (OD) at 550 nm was detected with a microplate reader.

Ba/F3 ETV6-NTRK2 = biological target: T11, Ba/F3 ETV6-NTRK2 (Homo sapiens, UniProt Q16620); assay: In vitro cell proliferation inhibition (MTT); assay type: cell-based, murine; conditions: 72 h, read-out: IC50 Ba/F3 ETV6-NTRK2
T11 construct: fused on or other part: P41212 (Transcription factor ETV6)
Procedure: as §6

Ba/F3 ETV6-NTRK3-G623R = biological target: T12, Ba/F3 ETV6-NTRK3-G623R (Homo sapiens, UniProt Q16288, G623R, cells depend on it); assay: In vitro cell proliferation inhibition (MTT); assay type: cell-based, murine; conditions: 72 h, read-out: IC50 Ba/F3 ETV6-NTRK3-G623R
T12 construct: fused on or other part: P41212 (Transcription factor ETV6)
Procedure: as §6

Ba/F3 LMNA-NTRK1-G667C = biological target: T13, Ba/F3 LMNA-NTRK1-G667C (Homo sapiens, UniProt P04629, G667C, cells depend on it); assay: In vitro cell proliferation inhibition (MTT); assay type: cell-based, murine; conditions: 72 h, read-out: IC50 Ba/F3 LMNA-NTRK1-G667C
T13 construct: fused on or other part: P02545 (Prelamin-A/C)
Procedure: as §6

Ba/F3 LMNA-NTRK1 = biological target: T14, Ba/F3 LMNA-NTRK1 (Homo sapiens, UniProt P04629); assay: In vitro cell proliferation inhibition (MTT); assay type: cell-based, murine; conditions: 72 h, read-out: IC50 Ba/F3 LMNA-NTRK1
T14 construct: fused on or other part: P02545 (Prelamin-A/C)
Procedure: as §6

Ba/F3 ETV6-NTRK3-G696A = biological target: T15, Ba/F3 ETV6-NTRK3-G696A (Homo sapiens, UniProt Q16288, G696A, cells depend on it); assay: In vitro cell proliferation inhibition (MTT); assay type: cell-based, murine; conditions: 72 h, read-out: IC50 Ba/F3 ETV6-NTRK3-G696A
T15 construct: fused on or other part: P41212 (Transcription factor ETV6)
Procedure: • Source of 6 kinds of cell lines for the test: KYinno Biotechnology (Beijing) Co., Ltd. • Cell type: murine B cells • Culture medium: RPMI-1640+10% FB S 2. Test Method
as §6

| Structure (SMILES) | IC50 (ROS1) [nM] | IC50 (TRKA(G667C)) [nM] | IC50 (TRKA(G595R)) [nM] | IC50 (TRKC(G696A)) [nM] | IC50 (ALK) [nM] | IC50 (TRKC) [nM] | IC50 (TRKA) [nM] | IC50 (TRKC(G623R)) [nM] | IC50 (TRKB) [nM] | GI50 (Ba/F3 LMNA-NTRK1-G595R) [nM] | GI50 (Ba/F3 ETV6-NTRK2) [nM] | GI50 (Ba/F3 ETV6-NTRK3-G623R) [nM] | GI50 (Ba/F3 LMNA-NTRK1-G667C) [nM] | GI50 (Ba/F3 LMNA-NTRK1) [nM] | GI50 (Ba/F3 ETV6-NTRK3-G696A) [nM] |
| --- | --- | --- | --- | --- | --- | --- | --- | --- | --- | --- | --- | --- | --- | --- | --- |
| O=C(Nc1ccc(NC2COC2)cc1)c1cnn2ccc(N3C[C@@H](F)C[C@@H]3c3cc(F)ccc3F)nc12 [Compound 19, 5-((2R,4S)-2-(2,5-difluorophenyl)-4-fluoropyrrolidin-1-yl)-N-(4-(oxetan-3-ylamino)phenyl)pyrazolo[1,5-a]pyrimidine-3-carboxamide] | 0.23 | 0.308 | < 0.169 | 0.936 | 39 | 0.724 | 0.265 | 0.241 | 0.984 | 0.208 | 0.866 | 0.426 | 1.19 | 0.416 | 0.321 |
| O=C(Nc1ccc(N2CCN(C(=O)C3CC3)CC2)cc1)c1cnn2ccc(N3C[C@@H](F)C[C@@H]3c3cc(F)ccc3F)nc12 [Compound 7] |  |  |  |  |  |  |  |  |  | 0.156 |  | 0.499 | 1.78 |  | 0.736 |
| O=C(Nc1ccc(CN2CCN(C(=O)CO)CC2)cc1)c1cnn2ccc(N3C[C@@H](F)C[C@@H]3c3cc(F)ccc3F)nc12 [Compound 18, 5-((2R,4S)-2-(2,5-difluorophenyl)-4-fluoropyrrolidin-1-yl)-N-(4-(4-(2-(2-hydroxyacetyl)piperazin-1-yl)methyl)phenyl)pyrazolo[1,5-a]pyrimidine-3-carboxamide] |  |  |  |  |  |  |  |  |  |  |  |  | 3.43 |  |  |
| CC(C)(O)C(=O)N1CCC(c2ccc(NC(=O)c3cnn4ccc(N5C[C@@H](F)C[C@@H]5c5cc(F)ccc5F)nc34)cc2)CC1 [Compound 13] |  |  |  |  |  |  |  |  |  |  |  |  | 1.47 |  |  |

Further lines, results first:

| IC50 (ROS1) [nM] | IC50 (TRKA(G667C)) [nM] | IC50 (TRKA(G595R)) [nM] | IC50 (TRKC(G696A)) [nM] | IC50 (ALK) [nM] | IC50 (TRKC) [nM] | IC50 (TRKA) [nM] | IC50 (TRKC(G623R)) [nM] | IC50 (TRKB) [nM] | GI50 (Ba/F3 LMNA-NTRK1-G595R) [nM] | GI50 (Ba/F3 ETV6-NTRK2) [nM] | GI50 (Ba/F3 ETV6-NTRK3-G623R) [nM] | GI50 (Ba/F3 LMNA-NTRK1-G667C) [nM] | GI50 (Ba/F3 LMNA-NTRK1) [nM] | GI50 (Ba/F3 ETV6-NTRK3-G696A) [nM] | Structure (SMILES) |
| --- | --- | --- | --- | --- | --- | --- | --- | --- | --- | --- | --- | --- | --- | --- | --- |
|  |  |  |  |  |  |  |  |  | 522 | 17.4 | 207 | 316 | 8.68 | 542 | CN1CCN(Cc2ccc(C(=O)Nc3cnn4ccc(N5CCC[C@@H]5c5cc(F)ccc5F)nc34)cc2)CC1 [Compound D3] |
|  |  |  |  |  |  |  |  |  | 4.59 | 12.2 | 13.3 | 413 | 2.14 | 90.8 | O=C(Nc1ccccc1)c1cnn2ccc(N3C[C@@H](F)C[C@@H]3c3cccc(F)c3)nc12 [Compound D5] |
|  |  |  |  |  |  |  |  |  | 65.9 | 14.9 | 17 | ≥ 1000 | 9.52 | 141 | O=C(NC1CCN(C(=O)CO)CC1)c1cnn2ccc(N3C[C@@H](F)C[C@@H]3c3cccc(F)c3)nc12 [Compound D4] |
